Experimental data reported in patent US5508288A, “Indole derivatives as 5HT1C antagonists” (SmithKline Beecham, p.l.c., priority 1992, dated 1996).

Assays:
[1] = molecular target: T1, 5-HT1C receptors (Rattus norvegicus, UniProt P08909); conditions: rats; literature (Kennett and Curzon); cited from earlier work
T1 construct: tissue Charles River; host or cells: whole animal, male Sprague Dawley rats (central receptors, in vivo)
T1 sequence (P08909 33-460): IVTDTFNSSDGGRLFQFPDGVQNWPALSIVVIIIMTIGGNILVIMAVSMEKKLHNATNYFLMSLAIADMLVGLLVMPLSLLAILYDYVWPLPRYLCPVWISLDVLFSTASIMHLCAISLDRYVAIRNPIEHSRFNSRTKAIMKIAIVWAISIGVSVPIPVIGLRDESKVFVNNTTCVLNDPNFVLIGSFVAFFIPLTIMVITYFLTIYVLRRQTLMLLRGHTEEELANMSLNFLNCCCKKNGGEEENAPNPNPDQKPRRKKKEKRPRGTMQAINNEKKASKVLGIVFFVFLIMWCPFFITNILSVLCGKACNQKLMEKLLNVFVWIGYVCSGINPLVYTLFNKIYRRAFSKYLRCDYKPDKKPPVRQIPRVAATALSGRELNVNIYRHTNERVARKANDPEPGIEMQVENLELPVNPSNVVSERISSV

[2] = molecular target: T1, 5-HT1C receptors; experiment: Reversal of mCPP-induced hypolocomotion; type: in vivo; conditions: po, p.o. 1 h pretest, mCPP 7 mg/kg i.p., male Sprague Dawley rats, read-out: ID50 (the source's name)
Source text: This effect was blocked by the non specific 5-HT1C /5-HT2 receptor antagonists mianserin, cyproheptadine and metergoline and perhaps by mesulergine. It was not blocked by the 5-HT2 receptor antagonists ketanserin and ritanserin at relevant doses (Kennett and Curzon 1991) nor by antagonists of 5-HT1A, 5-HT1B, 5-HT3, α2 adrenoceptors or dompamine D2 receptors. The effect of mCPP is therefore considered to be mediated by 5-HT1C receptors (Kennett and Curzon 1988) as confirmed by subsequent studies (Lucki et al., 1989). Since mCPP causes hypolocomotion when infused into the cerebral ventricles this effect is probably centrally mediated (Kennett and Curzon 1988).
mCPP-induced hypolocomotion was measured in automated locomotion cages of dimensions 56 cm long×161/2× cm wide×25 cm high and made of black perspex. Two photobeams traversed the width of the cages at either end at ground level. Sequential breaking of these beams allowed the measurement of cage transits.
Male Sprague Dawley rats (200-250 g) (Charles River) were housed in groups of six. They were given drugs orally 1 h pretest and 40 mins later mCPP (7 mg/kg i.p.). After a further 20 min they were placed in individual automated cages in groups of four under red light in an adjacent room. After 10 min the test was terminated. […]

[3] = test system: rat stomach fundus seretonin receptor; conditions: J. Med. Chem. 1986 29 2415-2418; cited from earlier work
[4] = molecular target: T2, 5-HT1C -like Receptors (Rattus norvegicus, UniProt P30994); experiment: Rat fundic strip, antagonism of 5-HT; conditions: agonist 5-HT, read-out: pA2 (converted)
T2 construct: tissue Charles River; host or cells: stomach fundus strips of male CD rats
T2 sequence (P30994 whole entry): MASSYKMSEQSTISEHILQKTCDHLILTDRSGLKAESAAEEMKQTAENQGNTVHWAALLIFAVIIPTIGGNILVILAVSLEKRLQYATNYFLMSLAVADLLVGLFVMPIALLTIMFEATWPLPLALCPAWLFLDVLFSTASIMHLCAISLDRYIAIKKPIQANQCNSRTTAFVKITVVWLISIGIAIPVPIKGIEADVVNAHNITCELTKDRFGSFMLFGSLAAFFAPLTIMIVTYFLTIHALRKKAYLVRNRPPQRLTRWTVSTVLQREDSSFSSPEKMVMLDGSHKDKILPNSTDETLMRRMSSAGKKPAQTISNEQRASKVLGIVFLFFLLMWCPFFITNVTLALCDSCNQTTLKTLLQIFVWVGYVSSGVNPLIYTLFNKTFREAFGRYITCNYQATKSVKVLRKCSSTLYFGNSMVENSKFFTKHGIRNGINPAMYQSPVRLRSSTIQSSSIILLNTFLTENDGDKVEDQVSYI
Source text: The 5-HT receptor in the rat fundic strip (RFS) has been characterised as `5-HT1C -like` as its pharmacology is similar, but not identical, to that of rat 5-HT1C receptor dones.
Whole stomachs were obtained from male CD Rats (Charles River, 250-350 g). Strips of fundus (2 cm×0.5 cm) were cut from the greater curvature and the mucesae carefully removed. Tissues were then further dissected into smaller strips (2 mm×20 mm) which were mounted in organ baths containing oxygensted Tyrodes solution at 37° C. containing indomethacin (3 μM). Preparations were maintained under a resting tension of 0.5 g and exposed to the irreversible MAO inhibitor pargyline (100 μM for 30 minutes followed by washout). Over a 1 h equilibration period, rat fundic strips were challenged with 1×10^-8 M 5-HT at 15 minute intervals until constant responses were obtained. Fifteen minutes later, a complete cumulative concentration-effect curve to the standard agonist 5-HT (1×10^-10 upwards) was constructed to determine the individual sensitivity of each preparation. A further concentration-effect curve to either 5-HT, or other agonists was constructed no sooner than 1 h after completion of the previous curve. When necessary tissues were equilibrated with the antagonists over this one hour period. Antagonists affinities are expressed as pA2 estimates.

Compound | block of mCPP-induced hypolocomotion [1] | other results
CN1CCC(=C2c3ccccc3C=Cc3ccccc32)CC1 [cyproheptadine] | blocked | –
CN1C[C@@H](NS(=O)(=O)N(C)C)C[C@@H]2c3cccc4c3c(cn4C)C[C@H]21 [mesulergine] | perhaps | –
Cc1nc2sccn2c(=O)c1CCN1CCC(=C(c2ccc(F)cc2)c2ccc(F)cc2)CC1 [ritanserin] | not blocked | –
O=C(c1ccc(F)cc1)C1CCN(CCn2c(=O)[nH]c3ccccc3c2=O)CC1 [ketanserin] | not blocked | –
Cn1ccc2cc(NC(=O)Nc3cncnc3)ccc21 [Example 3, N-(1-Methyl-5-indolyl)-N'-(5-pyrimidinyl) urea] | – | ED50 [2]: 43.7 mg/kg
CCc1c(C)n(C)c2ccc(NC(=O)Nc3cccc(C(F)(F)F)c3)cc12 [N-(1,2-dimethyl-3-ethyl-1H-indol-5-yl)-N'-(3-trifluoromethylphenyl)urea] | – | selectivity for the rat stomach fundus serotonin receptor [3]: shows selectivity
CN1C[C@H](CNC(=O)OCc2ccccc2)C[C@@H]2c3cccc4c3c(cn4C)C[C@H]21 [metergoline] | blocked | –
CN1CCN2c3ccccc3Cc3ccccc3C2C1 (stereo not shown) [mianserin] | blocked | –
Cn1ccc2cc(NC(=O)Nc3cccnn3)ccc21 [Example 2, N-(1-Methyl-5-indolyl)-N'-(3-pyridazinyl) urea] | – | ED50 [2]: 47 mg/kg
Cc1cc(NC(=O)Nc2ccc3c(ccn3C)c2)sn1 [Example 5, N-(1-Methyl-5-indolyl)-N'-(3-methyl-5-isothiazolyl) urea] | – | Kb [4]: 12.6 nM
